Read-outs that look alike come from different tables or passages of the source.

Results on four compounds are retold here after paper PMC10131204 (JACS Au, 2023).

The test system of one test is FKBP-cSnap and FRB-nSnap. The test is classed as biochemical.
The target of test [1] is DOR. The settings on record: cited from earlier work.
The test system of test [2] is DOR. The test is classed as cell-based. The settings on record: 10 µM compound, off-DNA.

As for `CCC(C)(C)C(=O)C(=O)N1CCCC[C@H]1C(=O)O[C@H](CCc1ccc(OC)c(OC)c1)c1cccc(OCC(=O)O)c1` [SLF, synthetic ligand for FKBP], in the test on FKBP-cSnap and FRB-nSnap, the “protein labeling with BG-FAM (SnapTag reconstitution)” value is “did not induce protein labeling”. A word on the Ki: it is the equilibrium dissociation constant of an inhibitor or competing ligand from its target. Regarding Dmt-Pro-Phe-Phe, at DOR [1] (high-affinity parental peptide), the Ki was about 28 nM.

Turning to “Met-Enk-RF: a β-arrestin-biased DOR agonist peptide; strong G-protein bias for the MOR (YGGFMRF; Met-enkephalin-Arg-Phe; UniProt P01210 261-267, looked up)”, the “biotinylation of the DOR (β-arrestin activation) in gel-based assay” value with DOR [2] was “markedly increased the biotinylation level”. For the compound Tyr-Tic, on DOR [1] (low-affinity parental peptide), the Ki was about 240 nM.
